# pEC50: −log10 of the molar value. Where “and” joins values, the source holds several entries; their conditions need not be identical. Equal values may be shown once.
# Biological target: T1, human GPR40 (Homo sapiens, UniProt O14842)
# T1 construct: expressed in transfected cells; host or cells: HEK cells stably expressing the aequorin reporter
# Test: Inositol Phosphate Turnover (IP1) Assay 2
# Format: cell-based
# Conditions: HEK cells stably expressing human GPR40; 15,000 cells per well; compound acoustically transferred; CisBio IP-One kit
# Experimental: Human and mouse GPR40 stable cell-lines were generated in CHO cells stably expressing NFAT BLA (Beta-lactamase). A human GPR40 stable cell-line was generated in HEK cells stably expressing the aequorin expressing reporter. The expression plasmids were transfected using lipofectamine (Life Technologies) following manufacturer's instructions. Stable cell-lines were generated following drug selection.
# Inositol Phosphate Turnover (IP1) Assay 2:
# The assay was performed in 384-well format. HEK cells stably expressing human GPR40 were plated at 15,000 cells per well in growth medium (DMEM/10% fetal calf serum). Cell plates were then incubated 16 hours at 37 degrees in a 5% CO2 incubator.
# Measurement of Inositol Phosphate Turnover (IP1) was performed using the CisBio IP-One kit (Part number 62IPAPEB). After the 16 hour incubation, the cells were washed with HEPES buffer and 10 ul of stimulation buffer (prepared as described in the kit) was added to each well. In a separate plate, compounds were diluted in DMSO (400-fold over the final concentration in the assay well) and 25 nl was acoustically transferred to the appropriate well in the assay cell plate. The plates were then incubated for 60 minutes at 37 degrees. 10 ul of detection buffer (also prepared as described in the IP-One kit) was added to each well and the plates were incubated for 60 minutes in the dark. The plates were then read in a Perkin Elmer EnVision or equivalent reader able to measure FRET. Fluorescent ratio of emission at 665 and 620 nm was then converted to IP1 concentration by back calculating from an IP1 standard curve prepared at the time of the assay.
# T1 sequence (O14842 whole entry): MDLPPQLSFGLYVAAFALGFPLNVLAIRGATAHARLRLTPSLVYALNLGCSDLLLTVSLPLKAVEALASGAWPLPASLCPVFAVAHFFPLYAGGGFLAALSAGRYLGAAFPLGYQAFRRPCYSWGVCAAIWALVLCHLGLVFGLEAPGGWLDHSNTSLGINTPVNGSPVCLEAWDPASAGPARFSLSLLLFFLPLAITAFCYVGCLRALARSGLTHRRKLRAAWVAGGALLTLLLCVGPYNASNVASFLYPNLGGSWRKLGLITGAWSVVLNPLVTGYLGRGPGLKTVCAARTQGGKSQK
row,Compound,pEC50
1,CNCc1cc(C2CCc3ccc([C@H](C4CC4)[C@H](C)C(=O)O)cc3O2)ccc1-c1cc(OC)ncc1F (mixture of isomers) [Example 4],6.51
2,COc1cc(-c2ccc(C3CCc4ccc([C@H](C5CC5)[C@H](C)C(=O)O)cc4O3)cc2CN2CCCC2)c(F)cn1 (mixture of isomers) [Example 9],8.37
3,COc1cc(-c2ccc(C3CCc4ccc([C@H](C5CC5)[C@H](C)C(=O)O)cc4O3)nc2CN2CCOCC2)c(F)cn1 (mixture of isomers) [Example 12],7.22
4,"COc1cc(-c2ccc(C3CCc4ccc([C@H](C5CC5)[C@H](C)C(=O)O)cc4O3)cc2CN2CCN(C)CC2)c(F)cn1 (mixture of isomers) [Example 13, (2S,3R)-3-cyclopropyl-3-(2-(4-(5-fluoro-2-methoxypyridin-4-yl)-3-(4-methylpiperazin-1-yl)methylphenyl)chroman-7-yl)-2-methylpropanoic acid]",6.68
5,COc1cc(-c2ccc(C3CCc4ccc([C@H](C5CC5)[C@H](C)C(=O)O)cc4O3)cc2CN2CCNCC2)c(F)cn1 (mixture of isomers) [Example 33],6.24
6,COc1cc(-c2ccc(C3CCc4ccc([C@H](C5CC5)[C@H](C)C(=O)O)cc4O3)cc2CN2CC(C)C2)c(F)cn1 (mixture of isomers) [Example 35],7.66
7,COc1cc(-c2ccc(C3CCc4ccc([C@H](C5CC5)[C@H](C)C(=O)O)cc4O3)cc2CN2CCn3cncc3C2)c(F)cn1 (mixture of isomers) [Example 40],6.74
8,COc1cc(-c2ccc(C3CCc4ccc([C@H](C5CC5)[C@H](C)C(=O)O)cc4O3)cc2CN2CCC(OC)CC2)c(F)cn1 (mixture of isomers) [Example 45],7.92
9,COc1cc(-c2ccc(C3CCc4ccc([C@H](C5CC5)[C@H](C)C(=O)O)cc4O3)cc2CN2CCC2(C)C)c(F)cn1 (mixture of isomers) [Example 49],8.40
10,COc1cc(-c2ccc(C3CCc4ccc([C@H](C5CC5)[C@H](C)C(=O)O)cc4O3)cc2CN2CCCCC23CC3)c(F)cn1 (mixture of isomers) [Example 62],9.70 and 9.00
11,COc1cc(-c2ccc(C3CCc4ccc([C@H](C5CC5)[C@H](C)C(=O)O)cc4O3)cc2CN2CC(C)(C#N)C2)c(F)cn1 (mixture of isomers) [Example 67],7.82
12,COc1cc(-c2ccc(C3CCc4ccc([C@H](C5CC5)[C@H](C)C(=O)O)cc4O3)cc2CN2CC(C)(OC)C2)c(F)cn1 (mixture of isomers) [Example 73],8.09
13,CCc1ccc(F)c(-c2ccc(C3CCc4ccc([C@H](C5CC5)[C@H](C)C(=O)O)cc4O3)cc2CN2CCCC2)c1 (mixture of isomers) [Example 75],7.77
14,CCOc1cc(-c2ccc(C3CCc4ccc([C@H](C5CC5)[C@H](C)C(=O)O)cc4O3)cc2CN(CC)CC)c(F)cn1 (mixture of isomers) [Example 76],8.09
15,"COc1cc(-c2ccc(C3CCc4ccc([C@H](C5CC5)[C@H](C)C(=O)O)cc4O3)cc2CN2CCCC2)c(C#N)cn1 (mixture of isomers) [Example 78, (2S,3R)-3-(2-(4-(5-cyano-2-methoxypyridin-4-yl)-3-(pyrrolidin-1-ylmethyl)phenyl)chroman-7-yl)-3-cyclopropyl-2-methylpropanoic acid]",8.10
16,COc1cc(-c2ccc(C3CCc4ccc([C@H](C5CC5)[C@H](C)C(=O)O)cc4O3)c(CN3CCCC3)c2)ccn1 (mixture of isomers) [Example 112],8.25
17,CCOc1cc(-c2ccc(C3CCc4ccc([C@H](C5CC5)[C@H](C)C(=O)O)cc4O3)cc2CN2CCCC2)c(Cl)cn1 (mixture of isomers) [Example 216],7.07
18,"CCOc1cc(-c2ccc(C3CCc4ccc([C@H](C5CC5)[C@H](C)C(=O)O)cc4O3)cc2CN2CCCC2)c(F)cn1 (mixture of isomers) [Example 74, (2S,3R)-3-cyclopropyl-3-(2-(4-(2-ethoxy-5-fluoropyridin-4-yl)-3-(pyrrolidin-1-ylmethyl)phenyl)chroman-7-yl)-2-methylpropanoic acid]",8.03
19,"COc1cc(-c2ccc(C3CCc4ccc([C@H](C5CC5)[C@H](C)C(=O)O)cc4O3)cc2CN2CCCC2)c(F)cn1 (single isomer, unassigned) [Example 9a]",8.41

# The next lines start with the values.
row,pEC50,Compound
1,9.15,COc1cc(-c2ccc(C3CCc4ccc([C@H](C5CC5)[C@H](C)C(=O)O)cc4O3)cc2CN2CCC(F)(F)C2)c(F)cn1 (mixture of isomers) [Example 17]
2,8.51,COc1cc(-c2ccc(C3CCc4ccc([C@H](C5CC5)[C@H](C)C(=O)O)cc4O3)cc2CN2CCOC3(CC3)C2)c(F)cn1 (mixture of isomers) [Example 42]
3,9.00,COc1cc(-c2ccc(C3CCc4ccc([C@H](C5CC5)[C@H](C)C(=O)O)cc4O3)cc2CN2CCC(F)(F)CC2)c(F)cn1 (mixture of isomers) [Example 46]
4,8.46,COc1cc(-c2ccc(C3CCc4ccc([C@H](C5CC5)[C@H](C)C(=O)O)cc4O3)cc2CN2CC(F)C2)c(F)cn1 (mixture of isomers) [Example 47]
5,9.46,COc1cc(-c2ccc(C3CCc4ccc([C@H](C5CC5)[C@H](C)C(=O)O)cc4O3)cc2CN(C2CC2)C2CC2)c(F)cn1 (mixture of isomers) [Example 52]
6,8.77,COc1cc(-c2ccc(C3CCc4ccc([C@H](C5CC5)[C@H](C)C(=O)O)cc4O3)cc2CN(C2CC2)C2COC2)c(F)cn1 (mixture of isomers) [Example 53]
7,9.14,COc1cc(-c2ccc(C3CCc4ccc([C@H](C5CC5)[C@H](C)C(=O)O)cc4O3)cc2CN2CCCC(C)(C)C2)c(F)cn1 (mixture of isomers) [Example 55]
8,9.74,COc1cc(-c2ccc(C3CCc4ccc([C@H](C5CC5)[C@H](C)C(=O)O)cc4O3)cc2CN(C)C2CC2)c(F)cn1 (mixture of isomers) [Example 57]
9,9.01,COc1cc(-c2ccc(C3CCc4ccc([C@H](C5CC5)[C@H](C)C(=O)O)cc4O3)cc2CN2CCOCC2(C)C)c(F)cn1 (mixture of isomers) [Example 59]
10,8.70,COc1cc(-c2ccc(C3CCc4ccc([C@H](C5CC5)[C@H](C)C(=O)O)cc4O3)cc2CN2CC(F)(F)C2)c(F)cn1 (mixture of isomers) [Example 61]
11,8.64,COc1cc(-c2ccc(C3CCc4ccc([C@H](C5CC5)[C@H](C)C(=O)O)cc4O3)cc2CN2CCCCC2)c(F)cn1 (mixture of isomers) [Example 63]
12,9.19,COc1cc(-c2ccc(C3CCc4ccc([C@H](C5CC5)[C@H](C)C(=O)O)cc4O3)cc2CN2CCCC2(C)C)c(F)cn1 (mixture of isomers) [Example 66]
13,9.15,COc1cc(-c2ccc(C3CCc4ccc([C@H](C5CC5)[C@H](C)C(=O)O)cc4O3)cc2CN2CCOCC23CCC3)c(F)cn1 (mixture of isomers) [Example 71]
14,8.64,"COc1cc(-c2ccc(C3CCc4ccc([C@H](C5CC5)[C@H](C)C(=O)O)cc4O3)cc2CN(C)C)c(F)cn1 (single isomer, unassigned) [Example 1a]"
15,8.54,"COc1cc(-c2ccc(C3CCc4ccc([C@H](C5CC5)[C@H](C)C(=O)O)cc4O3)cc2CN(C)C)c(F)cn1 (single isomer, unassigned) [Example 1b]"
16,8.47,"COc1cc(-c2ccc(C3CCc4ccc([C@H](C5CC5)[C@H](C)C(=O)O)cc4O3)cc2CN2CCCC2)c(F)cn1 (single isomer, unassigned) [Example 9b]"
